We go through 1 compound from ChEMBL document CHEMBL1153669, “Rs-100235: A high affinity 5-HT4 receptor antagonist” (Bioorg Med Chem Lett, 1995).

Molecules are shown by their SMILES. Bounds are passed on as bounds.

The target in series [1] is 5-hydroxytryptamine receptor 2A (Homo sapiens, UniProt P28223). Put plainly: Compound was evaluated for binding affinity against 5-hydroxytryptamine 2A receptor using radioligand binding assay.
Series [2] deals with T1, 5-hydroxytryptamine receptor 2C (Homo sapiens, UniProt P28335).
T1 sequence (P28335 whole entry): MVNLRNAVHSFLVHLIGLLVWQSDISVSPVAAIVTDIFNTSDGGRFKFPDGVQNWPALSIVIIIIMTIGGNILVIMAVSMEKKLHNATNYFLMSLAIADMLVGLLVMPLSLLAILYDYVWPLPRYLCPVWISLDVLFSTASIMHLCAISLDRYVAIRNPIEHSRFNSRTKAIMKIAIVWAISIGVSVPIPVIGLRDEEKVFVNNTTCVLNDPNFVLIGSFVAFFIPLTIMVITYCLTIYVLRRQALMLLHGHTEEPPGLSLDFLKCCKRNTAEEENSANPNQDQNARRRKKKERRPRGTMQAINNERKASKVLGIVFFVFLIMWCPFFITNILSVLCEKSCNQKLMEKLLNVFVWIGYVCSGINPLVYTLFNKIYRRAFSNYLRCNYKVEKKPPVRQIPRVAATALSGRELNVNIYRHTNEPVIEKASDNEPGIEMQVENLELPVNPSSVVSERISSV
Put plainly: Compound was evaluated for binding affinity against 5-hydroxytryptamine 2C receptor using radioligand binding assay.

Series [3] can be described thus: Compound was tested for its half-life period at an intravenous dose of 3 ug/kg. It counts as ADME, organism-based, Sus scrofa. Particulars: pig, in vivo, 0.003 mg/kg.
In series [4] the target is T2, Alpha-2B adrenergic receptor (Homo sapiens, UniProt P18089).
T2 sequence (P18089 whole entry): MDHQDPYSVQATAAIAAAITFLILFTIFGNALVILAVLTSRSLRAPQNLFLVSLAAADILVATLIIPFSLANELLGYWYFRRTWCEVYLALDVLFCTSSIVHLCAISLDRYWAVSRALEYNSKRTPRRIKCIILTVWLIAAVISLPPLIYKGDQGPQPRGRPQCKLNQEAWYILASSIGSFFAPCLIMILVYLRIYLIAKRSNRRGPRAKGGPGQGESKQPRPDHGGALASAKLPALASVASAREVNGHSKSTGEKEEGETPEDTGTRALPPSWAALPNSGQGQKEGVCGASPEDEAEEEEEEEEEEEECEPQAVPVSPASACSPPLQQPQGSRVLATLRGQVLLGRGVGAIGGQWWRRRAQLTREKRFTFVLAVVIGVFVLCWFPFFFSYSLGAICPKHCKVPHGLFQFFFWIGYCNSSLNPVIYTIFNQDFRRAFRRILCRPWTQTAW
Put plainly: Compound was evaluated for binding affinity against Alpha-2B adrenergic receptor using radioligand binding assay.

The next series has as its target D(2) dopamine receptor (Homo sapiens, UniProt P14416). As to the kind of experiment: Compound was evaluated for binding affinity against Dopamine D2 receptor using radioligand binding assay.
The target in the next series is D(1A) dopamine receptor (Homo sapiens, UniProt P21728). Put plainly: Compound was evaluated for binding affinity against Dopamine D1 receptor using radioligand binding assay.
Sequence of D(1A) dopamine receptor (P21728 whole entry): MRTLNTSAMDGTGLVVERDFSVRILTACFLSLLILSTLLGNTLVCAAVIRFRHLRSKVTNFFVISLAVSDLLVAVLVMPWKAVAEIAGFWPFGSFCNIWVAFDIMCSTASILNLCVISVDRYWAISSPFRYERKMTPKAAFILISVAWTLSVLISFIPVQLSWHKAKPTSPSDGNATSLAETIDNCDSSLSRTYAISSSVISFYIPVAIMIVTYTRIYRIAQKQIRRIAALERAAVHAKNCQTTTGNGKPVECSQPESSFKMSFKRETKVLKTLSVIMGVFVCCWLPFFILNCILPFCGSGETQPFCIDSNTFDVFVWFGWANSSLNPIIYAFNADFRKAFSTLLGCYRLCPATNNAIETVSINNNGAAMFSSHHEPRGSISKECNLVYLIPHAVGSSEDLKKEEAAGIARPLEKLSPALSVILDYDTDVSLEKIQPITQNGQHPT
Series [5] deals with Muscarinic acetylcholine receptor M3 (Homo sapiens, UniProt P20309). As to the kind of experiment: Compound was evaluated for binding affinity against Muscarinic M3 receptor using radioligand binding assay.
Sequence of Muscarinic acetylcholine receptor M3 (P20309 whole entry): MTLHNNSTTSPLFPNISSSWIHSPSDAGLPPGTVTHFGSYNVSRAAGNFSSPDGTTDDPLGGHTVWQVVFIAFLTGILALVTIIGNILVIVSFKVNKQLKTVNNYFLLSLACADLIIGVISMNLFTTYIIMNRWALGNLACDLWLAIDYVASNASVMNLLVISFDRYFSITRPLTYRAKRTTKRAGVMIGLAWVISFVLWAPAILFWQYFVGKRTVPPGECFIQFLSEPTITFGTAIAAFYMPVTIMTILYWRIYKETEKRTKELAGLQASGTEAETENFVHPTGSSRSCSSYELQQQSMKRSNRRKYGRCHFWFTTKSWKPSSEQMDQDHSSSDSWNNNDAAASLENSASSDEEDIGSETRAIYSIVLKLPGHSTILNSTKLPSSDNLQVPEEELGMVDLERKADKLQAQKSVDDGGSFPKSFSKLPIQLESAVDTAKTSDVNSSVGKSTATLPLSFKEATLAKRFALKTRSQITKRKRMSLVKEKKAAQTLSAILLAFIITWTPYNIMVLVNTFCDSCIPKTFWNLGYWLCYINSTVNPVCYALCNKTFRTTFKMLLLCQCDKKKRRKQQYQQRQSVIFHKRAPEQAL
Series [6] deals with T3, Muscarinic acetylcholine receptor M1 (Homo sapiens, UniProt P11229).
T3 sequence (P11229 whole entry): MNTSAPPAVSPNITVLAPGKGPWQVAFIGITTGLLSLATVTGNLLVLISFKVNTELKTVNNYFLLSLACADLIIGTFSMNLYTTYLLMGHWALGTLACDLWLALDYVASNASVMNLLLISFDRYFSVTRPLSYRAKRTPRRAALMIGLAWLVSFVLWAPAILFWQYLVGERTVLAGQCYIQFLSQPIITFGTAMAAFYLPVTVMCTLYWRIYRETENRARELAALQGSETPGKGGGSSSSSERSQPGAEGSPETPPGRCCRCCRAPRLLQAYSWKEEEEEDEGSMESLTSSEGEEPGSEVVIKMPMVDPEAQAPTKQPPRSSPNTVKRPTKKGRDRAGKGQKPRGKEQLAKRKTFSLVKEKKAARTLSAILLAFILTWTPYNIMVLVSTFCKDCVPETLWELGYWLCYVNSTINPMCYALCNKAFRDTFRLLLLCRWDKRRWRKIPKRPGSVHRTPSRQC
Put plainly: Compound was evaluated for binding affinity against Muscarinic M1 receptor using radioligand binding assay.

For series [7], the system named is Sus scrofa. As to the kind of experiment: Antagonism of 5-HT-induced tachycardia in anesthetized, vagotomized Yucatan micropigs at 0.03-10 ug/kg dose administered intravenously. It counts as functional. Particulars: iv, read-out: ID50 (the source's name).
Series [8] deals with Sus scrofa. Put plainly: Antagonism of 5-HT-induced tachycardia in anesthetized, vagotomized Yucatan micropigs at 0.1-30 ug/kg dose administered intraduodenally. To be noted: intraduodenal, read-out: ID50 (the source's name). It counts as functional.
For series [9], the target named is T4, Type-1 angiotensin II receptor (Homo sapiens, UniProt P30556).
T4 sequence (P30556 whole entry): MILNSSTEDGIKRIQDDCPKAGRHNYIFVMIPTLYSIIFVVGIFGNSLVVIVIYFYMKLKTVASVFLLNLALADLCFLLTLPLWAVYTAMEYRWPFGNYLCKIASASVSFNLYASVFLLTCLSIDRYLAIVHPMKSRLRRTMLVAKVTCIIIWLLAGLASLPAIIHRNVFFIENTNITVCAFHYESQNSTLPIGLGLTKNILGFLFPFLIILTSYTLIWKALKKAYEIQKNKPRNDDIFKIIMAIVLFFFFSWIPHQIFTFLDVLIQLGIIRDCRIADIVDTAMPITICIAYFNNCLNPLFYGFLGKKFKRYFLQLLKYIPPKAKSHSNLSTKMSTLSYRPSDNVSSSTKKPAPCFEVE
As to the kind of experiment: Compound was evaluated for binding affinity against Angiotensin II receptor, type 1 using radioligand binding assay.

Series [10] concerns the target 5-hydroxytryptamine receptor 4 (Cavia porcellus, UniProt O70528). As to the kind of experiment: Compound was evaluated for binding affinity against 5-hydroxytryptamine 4 receptor using radioligand binding assay using [3H]GR as radioligand.
The target of series [11] is T5, Alpha-2A adrenergic receptor (Homo sapiens, UniProt P08913).
T5 sequence (P08913 whole entry): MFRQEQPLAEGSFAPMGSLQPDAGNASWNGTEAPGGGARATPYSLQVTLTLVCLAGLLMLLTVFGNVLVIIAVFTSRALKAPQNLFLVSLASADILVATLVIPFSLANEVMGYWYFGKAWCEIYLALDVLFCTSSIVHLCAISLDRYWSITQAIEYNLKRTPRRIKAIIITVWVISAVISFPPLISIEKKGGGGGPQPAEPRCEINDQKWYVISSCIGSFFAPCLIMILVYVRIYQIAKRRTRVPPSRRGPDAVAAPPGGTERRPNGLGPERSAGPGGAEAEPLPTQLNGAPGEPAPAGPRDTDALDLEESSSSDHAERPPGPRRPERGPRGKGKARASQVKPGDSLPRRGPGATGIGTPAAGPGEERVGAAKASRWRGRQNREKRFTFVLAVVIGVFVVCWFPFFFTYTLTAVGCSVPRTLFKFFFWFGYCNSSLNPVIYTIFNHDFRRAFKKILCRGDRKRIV
Put plainly: Compound was evaluated for binding affinity against Alpha-2A adrenergic receptor using radioligand binding assay.

Sequence of D(2) dopamine receptor (P14416 whole entry): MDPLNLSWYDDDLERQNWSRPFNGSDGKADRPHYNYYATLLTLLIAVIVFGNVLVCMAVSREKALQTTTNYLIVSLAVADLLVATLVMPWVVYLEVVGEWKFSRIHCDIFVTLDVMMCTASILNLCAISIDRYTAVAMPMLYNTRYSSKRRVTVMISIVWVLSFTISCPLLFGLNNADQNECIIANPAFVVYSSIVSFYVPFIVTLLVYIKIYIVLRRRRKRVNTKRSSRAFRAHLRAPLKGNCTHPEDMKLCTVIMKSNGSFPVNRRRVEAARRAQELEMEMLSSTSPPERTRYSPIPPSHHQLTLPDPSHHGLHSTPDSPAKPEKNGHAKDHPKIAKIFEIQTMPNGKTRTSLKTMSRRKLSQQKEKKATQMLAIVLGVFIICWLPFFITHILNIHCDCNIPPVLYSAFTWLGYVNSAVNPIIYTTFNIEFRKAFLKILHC
Sequence of 5-hydroxytryptamine receptor 4 (O70528 whole entry): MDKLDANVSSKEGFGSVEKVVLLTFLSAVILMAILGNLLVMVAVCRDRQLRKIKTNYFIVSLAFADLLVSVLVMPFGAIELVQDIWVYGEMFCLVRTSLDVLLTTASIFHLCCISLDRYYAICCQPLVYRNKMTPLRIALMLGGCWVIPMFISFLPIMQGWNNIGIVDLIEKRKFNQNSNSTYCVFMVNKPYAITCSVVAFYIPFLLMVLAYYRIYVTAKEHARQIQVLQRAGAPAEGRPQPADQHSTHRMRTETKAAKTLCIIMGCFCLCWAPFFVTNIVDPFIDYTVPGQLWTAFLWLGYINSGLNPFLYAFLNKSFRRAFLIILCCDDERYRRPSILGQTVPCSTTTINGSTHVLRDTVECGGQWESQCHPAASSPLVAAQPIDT
Sequence of 5-hydroxytryptamine receptor 2A (P28223 whole entry): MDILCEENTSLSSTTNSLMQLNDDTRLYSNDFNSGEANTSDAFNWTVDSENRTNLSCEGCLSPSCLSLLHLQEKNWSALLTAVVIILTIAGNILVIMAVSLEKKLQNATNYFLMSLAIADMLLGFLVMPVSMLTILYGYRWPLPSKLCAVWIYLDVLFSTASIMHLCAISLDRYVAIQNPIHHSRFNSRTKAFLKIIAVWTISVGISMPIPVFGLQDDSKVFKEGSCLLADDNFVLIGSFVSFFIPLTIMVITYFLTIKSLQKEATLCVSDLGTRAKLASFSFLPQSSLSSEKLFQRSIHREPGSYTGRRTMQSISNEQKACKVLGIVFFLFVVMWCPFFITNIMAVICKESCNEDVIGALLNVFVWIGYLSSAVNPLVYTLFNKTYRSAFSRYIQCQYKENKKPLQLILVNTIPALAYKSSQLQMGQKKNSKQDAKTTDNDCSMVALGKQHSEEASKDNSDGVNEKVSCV

Broadly, the Ki is a measure of affinity in units of concentration, obtained from inhibition or displacement. A low value points to higher affinity. As usually defined, the half-life is the time needed for the level to fall by half in the phase considered. Low values mean fast loss, high ones slow loss. Turning to `COc1ccc(CCCN2CCC(CCC(=O)c3cc(Cl)c(N)c4c3OCCO4)CC2)cc1OC`, the Ki in [1] was 501 nM; in [2], 1580 nM; in series [4], 2510 nM; at D(2) dopamine receptor, 316 nM; on D(1A) dopamine receptor, above 10 µM; in [5] it was 2000 nM. The Ki is 1580 nM in series [6], above 10 µM in series [9], 0.1 nM in series [10] and 100 nM in series [11]. The compound further had a half-life in [3] above 360 min. Further, the values for the ED50 in the series on Sus scrofa [7] and in the series with Sus scrofa [8] were 0.55 µg/kg and 1.52 µg/kg, respectively.
